In patent US10131652B2, “Pyrimidinyloxy benzene derivatives as herbicides” (E. I. DU PONT DE NEMOURS AND COMPANY, priority 2014, dated 2018):

How the values were obtained:
Assay in all cases: Test F pre-/postemergence plant response
Assay type in all cases: in vivo
Conditions in all cases: scale 0 to 100
[1] = tested on: hairy beggarticks (Bidens pilosa)
Method in brief: (§1)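 Visual rating versus untreated controls, 0–100 scale (0 = no effect, 100 = complete control), taken 14–21 d after treatment in greenhouse. Pre: seeds planted in silt loam, soil treated. Post: plants 2–18 cm, 1–4 leaves. Compound formulated in non-phytotoxic solvent plus surfactant.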

[2] = tested on: fall panicum (Panicum dichotomiflorum)
Method in brief: as §1

[3] = tested on: arrowleaf sida (Sida rhombifolia)
Method in brief: as §1

[4] = tested on: sandbur (southern sandbur, Cenchrus echinatus)
Method in brief: as §1

[5] = tested on: Brazilian crabgrass (Digitaria horizontalis)
Method in brief: as §1

[6] = tested on: palmer pigweed (Amaranthus palmeri)
Method in brief: as §1

[7] = tested on: goosegrass (Eleusine indica)
Method in brief: as §1

[8] = tested on: corn (Zea mays)
Method in brief: as §1

[9] = tested on: velvetleaf (Abutilon theophrasti)
Method in brief: as §1

[10] = tested on: nightshade (eastern black nightshade, Solanum ptycanthum)
Method in brief: as §1

Q: Which “Plant response rating, Beggarticks” value ([1]; 16 g ai/ha Postemergence) does the source give for Fc1ccc(Oc2ncc(Cl)cn2)c(-c2cc(C(F)F)on2)c1Cl [Compound 96] here?
A: Its value is 0.

Q: And the “Plant response rating, Beggarticks” value ([1]; 16 g ai/ha Preemergence)?
A: Its value is 0.

Q: What about the “Plant response rating, Beggarticks” value ([1]; 31 g ai/ha Postemergence) of the same molecule?
A: The value was 30.

Q: What about the “Plant response rating, Beggarticks” value ([1]; 31 g ai/ha Preemergence) of the same molecule?
A: Its value is 0.

Q: And the “Plant response rating, Beggarticks” value ([1]; 62 g ai/ha Postemergence)?
A: The value was 40.

Q: And the “Plant response rating, Beggarticks” value ([1]; 62 g ai/ha Preemergence)?
A: Its value is 0.

Q: And the “Plant response rating, Beggarticks” value ([1]; 125 g ai/ha Postemergence)?
A: Its value is 40.

Q: And the “Plant response rating, Beggarticks” value ([1]; 125 g ai/ha Preemergence)?
A: The value was 20.

Q: What about the “Plant response rating, Panicum, Fall” value ([2]; 16 g ai/ha Postemergence) of the same molecule?
A: Its value is 0.

Q: And the “Plant response rating, Panicum, Fall” value ([2]; 31 g ai/ha Postemergence)?
A: The value was 15.

Q: What about the “Plant response rating, Panicum, Fall” value ([2]; 31 g ai/ha Preemergence) of the same molecule?
A: The value was 40.

Q: And the “Plant response rating, Panicum, Fall” value ([2]; 62 g ai/ha Postemergence)?
A: The value was 10.

Q: What about the “Plant response rating, Panicum, Fall” value ([2]; 125 g ai/ha Postemergence) of the same molecule?
A: The value was 25.

Q: What about the “Plant response rating, Panicum, Fall” value ([2]; 125 g ai/ha Preemergence) of the same molecule?
A: Its value is 70.

Q: And the “Plant response rating, Panicum, Fall” value ([2]; Preemergence)?
A: Its value is 50.

Q: And the “Plant response rating, Arrowleaf Sida” value ([3]; 16 g ai/ha Postemergence)?
A: Its value is 70.

Q: What about the “Plant response rating, Arrowleaf Sida” value ([3]; 16 g ai/ha Preemergence) of the same molecule?
A: Its value is 50.

Q: And the “Plant response rating, Arrowleaf Sida” value ([3]; 31 g ai/ha Postemergence)?
A: The value was 80.

Q: What about the “Plant response rating, Arrowleaf Sida” value ([3]; 31 g ai/ha Preemergence) of the same molecule?
A: The value was 70.

Q: And the “Plant response rating, Arrowleaf Sida” value ([3]; 62 g ai/ha Postemergence)?
A: The value was 90.

Q: And the “Plant response rating, Arrowleaf Sida” value ([3]; 62 g ai/ha Preemergence)?
A: The value was 80.

Q: What about the “Plant response rating, Arrowleaf Sida” value ([3]; 125 g ai/ha Postemergence) of the same molecule?
A: Its value is 95.

Q: And the “Plant response rating, Arrowleaf Sida” value ([3]; 125 g ai/ha Preemergence)?
A: The value was 90.

Q: And the “Plant response rating, Sandbur” value ([4]; 16 g ai/ha Postemergence)?
A: The value was 0.

Q: What about the “Plant response rating, Sandbur” value ([4]; 16 g ai/ha Preemergence) of the same molecule?
A: The value was 0.

Q: And the “Plant response rating, Sandbur” value ([4]; 31 g ai/ha Postemergence)?
A: The value was 0.

Q: And the “Plant response rating, Sandbur” value ([4]; 31 g ai/ha Preemergence)?
A: Its value is 10.

Q: And the “Plant response rating, Sandbur” value ([4]; 62 g ai/ha Postemergence)?
A: Its value is 0.

Q: What about the “Plant response rating, Sandbur” value ([4]; 125 g ai/ha Postemergence) of the same molecule?
A: Its value is 0.

Q: What about the “Plant response rating, Sandbur” value ([4]; 125 g ai/ha Preemergence) of the same molecule?
A: Its value is 30.

Q: And the “Plant response rating, Sandbur” value ([4]; Preemergence)?
A: Its value is 40.

Q: And the “Plant response rating, Crabgrass, Brazil” value ([5]; 16 g ai/ha Postemergence)?
A: Its value is 0.

Q: And the “Plant response rating, Crabgrass, Brazil” value ([5]; 16 g ai/ha Preemergence)?
A: The value was 0.

Q: And the “Plant response rating, Crabgrass, Brazil” value ([5]; 31 g ai/ha Postemergence)?
A: The value was 5.

Q: What about the “Plant response rating, Crabgrass, Brazil” value ([5]; 31 g ai/ha Preemergence) of the same molecule?
A: The value was 0.

Q: And the “Plant response rating, Crabgrass, Brazil” value ([5]; 62 g ai/ha Postemergence)?
A: Its value is 20.

Q: And the “Plant response rating, Crabgrass, Brazil” value ([5]; 62 g ai/ha Preemergence)?
A: The value was 0.

Q: What about the “Plant response rating, Crabgrass, Brazil” value ([5]; 125 g ai/ha Postemergence) of the same molecule?
A: Its value is 25.

Q: And the “Plant response rating, Crabgrass, Brazil” value ([5]; 125 g ai/ha Preemergence)?
A: The value was 5.

Q: And the “Plant response rating, Pigweed, Palmer” value ([6]; 16 g ai/ha Postemergence)?
A: Its value is 70.

Q: What about the “Plant response rating, Pigweed, Palmer” value ([6]; 16 g ai/ha Preemergence) of the same molecule?
A: Its value is 80.

Q: What about the “Plant response rating, Pigweed, Palmer” value ([6]; 31 g ai/ha Postemergence) of the same molecule?
A: Its value is 80.

Q: And the “Plant response rating, Pigweed, Palmer” value ([6]; 31 g ai/ha Preemergence)?
A: The value was 98.

Q: What about the “Plant response rating, Pigweed, Palmer” value ([6]; 62 g ai/ha Postemergence) of the same molecule?
A: Its value is 95.

Q: And the “Plant response rating, Pigweed, Palmer” value ([6]; 125 g ai/ha Postemergence)?
A: The value was 90.

Q: What about the “Plant response rating, Pigweed, Palmer” value ([6]; 125 g ai/ha Preemergence) of the same molecule?
A: Its value is 100.

Q: And the “Plant response rating, Pigweed, Palmer” value ([6]; Preemergence)?
A: Its value is 100.

Q: And the “Plant response rating, Goosegrass” value ([7]; 16 g ai/ha Preemergence)?
A: The value was 50.

Q: What about the “Plant response rating, Goosegrass” value ([7]; 31 g ai/ha Preemergence) of the same molecule?
A: The value was 40.

Q: What about the “Plant response rating, Goosegrass” value ([7]; 125 g ai/ha Preemergence) of the same molecule?
A: The value was 60.

Q: And the “Plant response rating, Goosegrass” value ([7]; Preemergence)?
A: Its value is 40.

Q: And the “Plant response rating, Corn” value ([8]; 16 g ai/ha Postemergence)?
A: The value was 0.

Q: What about the “Plant response rating, Corn” value ([8]; 16 g ai/ha Preemergence) of the same molecule?
A: Its value is 0.

Q: What about the “Plant response rating, Corn” value ([8]; 31 g ai/ha Postemergence) of the same molecule?
A: The value was 5.

Q: And the “Plant response rating, Corn” value ([8]; 31 g ai/ha Preemergence)?
A: Its value is 0.

Q: What about the “Plant response rating, Corn” value ([8]; 62 g ai/ha Postemergence) of the same molecule?
A: Its value is 10.

Q: And the “Plant response rating, Corn” value ([8]; 62 g ai/ha Preemergence)?
A: Its value is 0.

Q: And the “Plant response rating, Corn” value ([8]; 125 g ai/ha Postemergence)?
A: The value was 10.

Q: And the “Plant response rating, Corn” value ([8]; 125 g ai/ha Preemergence)?
A: Its value is 0.

Q: What about the “Plant response rating, Velvetleaf” value ([9]; 16 g ai/ha Preemergence) of the same molecule?
A: The value was 0.

Q: What about the “Plant response rating, Velvetleaf” value ([9]; 31 g ai/ha Preemergence) of the same molecule?
A: The value was 60.

Q: And the “Plant response rating, Velvetleaf” value ([9]; 125 g ai/ha Preemergence)?
A: Its value is 80.

Q: What about the “Plant response rating, Velvetleaf” value ([9]; Preemergence) of the same molecule?
A: Its value is 80.

Q: What about the “Plant response rating, Nightshade” value ([10]; 16 g ai/ha Preemergence) of the same molecule?
A: Its value is 0.

Q: What about the “Plant response rating, Nightshade” value ([10]; 31 g ai/ha Preemergence) of the same molecule?
A: The value was 0.

Q: And the “Plant response rating, Nightshade” value ([10]; 125 g ai/ha Preemergence)?
A: Its value is 90.

Q: What about the “Plant response rating, Nightshade” value ([10]; Preemergence) of the same molecule?
A: The value was 65.

Q: What does the source list for FC(F)c1cc(-c2ccccc2Oc2ncc(Br)cn2)on1 [Compound 212]?
A: Plant response rating, Beggarticks ([1]; 16 g ai/ha Postemergence): 25; Plant response rating, Beggarticks ([1]; 31 g ai/ha Postemergence): 40; Plant response rating, Beggarticks ([1]; 62 g ai/ha Postemergence): 40; Plant response rating, Beggarticks ([1]; 125 g ai/ha Postemergence): 40; Plant response rating, Panicum, Fall ([2]; 16 g ai/ha Postemergence): 0; Plant response rating, Panicum, Fall ([2]; 31 g ai/ha Postemergence): 0; Plant response rating, Panicum, Fall ([2]; 62 g ai/ha Postemergence): 10; Plant response rating, Panicum, Fall ([2]; 125 g ai/ha Postemergence): 10; Plant response rating, Arrowleaf Sida ([3]; 16 g ai/ha Postemergence): 75; Plant response rating, Arrowleaf Sida ([3]; 31 g ai/ha Postemergence): 70; Plant response rating, Arrowleaf Sida ([3]; 62 g ai/ha Postemergence): 85; Plant response rating, Arrowleaf Sida ([3]; 125 g ai/ha Postemergence): 100; Plant response rating, Sandbur ([4]; 16 g ai/ha Postemergence): 0; Plant response rating, Sandbur ([4]; 31 g ai/ha Postemergence): 0; Plant response rating, Sandbur ([4]; 62 g ai/ha Postemergence): 0; Plant response rating, Sandbur ([4]; 125 g ai/ha Postemergence): 10; Plant response rating, Crabgrass, Brazil ([5]; 16 g ai/ha Postemergence): 20; Plant response rating, Crabgrass, Brazil ([5]; 31 g ai/ha Postemergence): 30; Plant response rating, Crabgrass, Brazil ([5]; 62 g ai/ha Postemergence): 30; Plant response rating, Crabgrass, Brazil ([5]; 125 g ai/ha Postemergence): 35; Plant response rating, Pigweed, Palmer ([6]; 16 g ai/ha Postemergence): 30; Plant response rating, Pigweed, Palmer ([6]; 31 g ai/ha Postemergence): 75; Plant response rating, Pigweed, Palmer ([6]; 62 g ai/ha Postemergence): 100; Plant response rating, Pigweed, Palmer ([6]; 125 g ai/ha Postemergence): 98; Plant response rating, Corn ([8]; 16 g ai/ha Postemergence): 0; Plant response rating, Corn ([8]; 31 g ai/ha Postemergence): 0; Plant response rating, Corn ([8]; 62 g ai/ha Postemergence): 0; Plant response rating, Corn ([8]; 125 g ai/ha Postemergence): 0
